Results as given in patent publication US7514424B2, “Substituted 4-(4-piperidin-4-yl-piperazin-1-yl)-azepane derivatives and their use as neurokinin antagonists” (Janssen Pharmaceutica N.V., priority 2002, dated 2009).

Assays:
Assay in all cases: Signal transduction (intracellular Ca++, FLIPR), functional antagonistic activity
Format in all cases: cell-based
[1] = biological target: h-NK1 (Homo sapiens, UniProt P25103); conditions: Ca++ peak, read-out: pIC50 h-NK1 (converted)
Procedure: (§1) This test evaluates in vitro functional NK1 antagonistic activity. For the measurements of intracellular Ca^++ concentrations the cells were grown on 96-well (black wall/transparent bottom) plates from Costar for 2 days until they reached confluence. The cells were loaded with 2 μM Fluo3 in DMEM containing 0.1% BSA and 2.5 mM probenecid for 1 h at 37° C. They were washed 3× with a Krebs buffer (140 mM NaCl, 1 mM MgCl2×6H2O, 5 mM KCl, 10 mM glucose, 5 mM HEPES; 1.25 mM CaCl2; pH 7.4) containing 2.5 mM probenecid and 0.1% BSA (Ca^++-buffer). The cells were preincubated with a concentration range of antagonists for 20 min at RT and Ca^++-signals after addition of the agonists were measured in a Fluorescence Image Plate
(§2) Reader (FLIPR from Molecular Devices, Crawley, England). The peak of the Ca^++-transient was considered as the relevant signal and the mean values of corresponding wells were analysed as described below.
(§3) The sigmoidal dose response curves were analysed by computerised curve-fitting, using the GraphPad Program. The EC50-value of a compound is the effective dose showing 50% of maximal effect. For mean curves the response to the agonist with the highest potency was normalised to 100%. For antagonist responses the IC50-value was calculated using non-linear regression.
(§4) The last colums indicates—without being limited thereto—for which action the compounds might be most suitable. Of course, since for some neurokinin receptors no data was determined, it is obvious that these compounds might be attributed to another suitable use.

[2] = biological target: T1, h-NK3 (Homo sapiens, UniProt P29371); conditions: Ca++ peak, read-out: pIC50 h-NK3 (converted)
T1 sequence (P29371 1-465): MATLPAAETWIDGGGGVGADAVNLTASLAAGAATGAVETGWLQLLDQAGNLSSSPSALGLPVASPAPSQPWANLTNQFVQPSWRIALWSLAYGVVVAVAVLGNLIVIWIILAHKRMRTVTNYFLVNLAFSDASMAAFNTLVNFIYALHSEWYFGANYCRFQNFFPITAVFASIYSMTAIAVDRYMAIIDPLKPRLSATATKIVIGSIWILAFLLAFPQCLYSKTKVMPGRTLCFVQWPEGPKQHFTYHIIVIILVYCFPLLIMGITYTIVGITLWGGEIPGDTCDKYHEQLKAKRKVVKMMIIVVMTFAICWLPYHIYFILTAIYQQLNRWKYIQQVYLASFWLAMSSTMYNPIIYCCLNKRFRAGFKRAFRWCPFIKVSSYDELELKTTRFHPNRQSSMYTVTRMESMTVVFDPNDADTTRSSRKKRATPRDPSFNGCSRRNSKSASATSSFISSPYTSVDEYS
Procedure: [Worded in the source for another target; this target is reported under the same test.] as §1, §2, §3, §4

[3] = biological target: T2, h-NK2 (Homo sapiens, UniProt P21452); conditions: Ca++ peak, read-out: pIC50 h-NK2 (converted)
T2 sequence (P21452 1-398): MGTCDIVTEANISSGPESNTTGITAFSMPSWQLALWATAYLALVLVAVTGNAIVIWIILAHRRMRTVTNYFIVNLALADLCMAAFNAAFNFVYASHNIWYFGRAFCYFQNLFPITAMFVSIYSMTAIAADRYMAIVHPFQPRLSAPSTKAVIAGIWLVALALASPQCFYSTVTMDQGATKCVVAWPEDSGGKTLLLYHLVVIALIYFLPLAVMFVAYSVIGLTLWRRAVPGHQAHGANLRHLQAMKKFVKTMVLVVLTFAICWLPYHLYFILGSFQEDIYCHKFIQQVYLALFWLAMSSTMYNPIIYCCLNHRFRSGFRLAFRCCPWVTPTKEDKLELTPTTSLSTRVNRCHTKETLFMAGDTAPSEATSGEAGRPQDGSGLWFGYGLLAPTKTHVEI
Procedure: [Worded in the source for another target; this target is reported under the same test.] as §1, §2, §3, §4

Chain of h-NK1 (P25103 whole entry): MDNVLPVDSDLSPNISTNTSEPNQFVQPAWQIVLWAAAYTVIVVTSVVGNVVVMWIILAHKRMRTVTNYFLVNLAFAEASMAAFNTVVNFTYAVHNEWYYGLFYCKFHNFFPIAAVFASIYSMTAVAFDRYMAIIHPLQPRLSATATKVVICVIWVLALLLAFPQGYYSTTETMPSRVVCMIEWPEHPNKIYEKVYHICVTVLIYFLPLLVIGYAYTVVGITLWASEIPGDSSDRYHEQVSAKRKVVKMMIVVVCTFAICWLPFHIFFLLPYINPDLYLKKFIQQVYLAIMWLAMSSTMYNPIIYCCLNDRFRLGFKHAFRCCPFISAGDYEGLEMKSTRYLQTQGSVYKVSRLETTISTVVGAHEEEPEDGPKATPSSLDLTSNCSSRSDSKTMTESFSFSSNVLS

| Structure (SMILES) | IC50 [1] | IC50 [2] | IC50 [3] |
| --- | --- | --- | --- |
| CC(C)(C)OC(=O)N1CCCC(N2CCN(C3CCN(C(=O)c4cc(C(F)(F)F)cc(C(F)(F)F)c4)C(Cc4ccccc4)C3)CC2)CC1 (stereo not shown) [Compound 1] | 32.4 nM | 10000 nM |  |
| O=C(c1ccccc1)N1CCCC(N2CCN(C3CCN(C(=O)c4cc(C(F)(F)F)cc(C(F)(F)F)c4)C(Cc4ccccc4)C3)CC2)CC1 (stereo not shown) [Compound 3] | 200 nM |  |  |
| CCOC(=O)N1CCCC(N2CCN(C3CCN(C(=O)c4cc(C(F)(F)F)cc(C(F)(F)F)c4)C(Cc4ccccc4)C3)CC2)CC1 (stereo not shown) [Compound 4] | 166 nM |  |  |
| O=C(c1ccc(F)c(F)c1)N1CCCC(N2CCN(C3CCN(C(=O)c4cc(C(F)(F)F)cc(C(F)(F)F)c4)C(Cc4ccccc4)C3)CC2)CC1 (stereo not shown) [Compound 5] | 148 nM |  |  |
| O=C(c1cccc(F)c1)N1CCCC(N2CCN(C3CCN(C(=O)c4cc(C(F)(F)F)cc(C(F)(F)F)c4)C(Cc4ccccc4)C3)CC2)CC1 (stereo not shown) [Compound 6] | 158 nM | 1350 nM | 9330 nM |

Continued, values first:

| IC50 [1] | IC50 [2] | IC50 [3] | Structure (SMILES) |
| --- | --- | --- | --- |
| 28.8 nM | 1910 nM |  | O=C(c1ccoc1)N1CCCC(N2CCN(C3CCN(C(=O)c4cc(C(F)(F)F)cc(C(F)(F)F)c4)C(Cc4ccccc4)C3)CC2)CC1 (stereo not shown) [Compound 7] |
| 28.2 nM | 10000 nM |  | Cc1cc(C(=O)N2CCCC(N3CCN(C4CCN(C(=O)c5cc(C(F)(F)F)cc(C(F)(F)F)c5)C(Cc5ccccc5)C4)CC3)CC2)no1 (stereo not shown) [Compound 8] |
| 302 nM |  |  | Cc1cccc(C(=O)N2CCCC(N3CCN(C4CCN(C(=O)c5cc(C(F)(F)F)cc(C(F)(F)F)c5)C(Cc5ccccc5)C4)CC3)CC2)c1 (stereo not shown) [Compound 9] |
